This experiment deals with Human umbilical endothelial cells (HUVEC). Put plainly: Inhibition of VEGF165-stimulated HUVEC proliferation (3H-thymidine incorporation). The experiment is classed as cell-based. Particulars: HUVEC stimulated with 5 ng/ml VEGF165 and 10 μg/ml heparin; 76 hours incubation then 16 hours 3H-thymidine; concentration inhibiting proliferation by 50%. The method, then:
Human umbilical endothelial cells (HUVEC) were cultivated in IMDM (Gibco BRL), supplemented with 10% foetal calf serum (FBS) (Sigma), 50 μM of β-mercaptoethanol (Fluka), standard antibiotics, 15 μg/ml of endothelial cell growth factor (ECGS, Collaborative Biomedical Products) and 100 μg/ml of heparin (Sigma) on gelatine-coated culture dishes (0.2% gelatine, Sigma) at 37° C., under 5% CO2 in a water-saturated atmosphere.
In order to investigate the inhibitory activity of the compounds according to the invention the cells were “starved” for 16 hours, i.e. kept in culture medium without growth factors (ECGS+heparin). The cells were detached from the culture dishes using trypsin/EDTA and washed once in serum-containing medium. Then they were seeded out in amounts of 2.5×10^3 cells per well.
The proliferation of the cells was stimulated with 5 ng/ml of VEGF165 (vascular endothelial growth factor; H. Weich, GBF Braunschweig) and 10 μg/ml of heparin. As a control, 6 wells in each dish were not stimulated.
The compounds according to the invention were dissolved in 100% dimethylsulphoxide and added to the cultures in various dilutions as triple measurements, the maximum dimethylsulphoxide concentration being 0.3%.
The cells were incubated for 76 hours at 37° C., then for a further 16 hours ^3H-thymidine (0.1 μCi/well, Amersham) was added in order to determine the DNA synthesis. Then the radioactively labelled cells were immobilised on filter mats and the radioactivity incorporated was measured in a β-counter. In order to determine the inhibitory activity of the compounds according to the invention the mean value of the non-stimulated cells was subtracted from the mean value of the factor-stimulated cells (in the presence or absence of the compounds according to the invention).
The relative cell proliferation was calculated as a percentage of the control (HUVEC without inhibitor) and the concentration of active substance which inhibits the proliferation of the cells by 50% (IC50) was determined.
Consider “methyl 3-(Z)-[1-{4-[(4-ethyl-piperazin-1-yl)-carbonyl]-phenylamino}-1-phenyl-methylidene]-2-indolinone-6-carboxylate [(h)]”, for which the IC50 (in general, the point on the concentration scale where inhibition reaches its midpoint) came to 20 nM.
Turning to “methyl 3-(Z)-[1-{4-[(4-methyl-piperazin-1-yl)-carbonyl]-phenylamino}-1-phenyl-methylidene]-2-indolinone-6-carboxylate [(c)]”, the IC50 is 30 nM.
The same measure for “methyl 3-(Z)-[1-{4-[(4-hydroxy-piperidin-1-yl)-carbonyl]-phenylamino}-1-phenyl-methylidene]-2-indolinone-6-carboxylate [(d)]”: 50 nM.
For the compound “methyl 3-(Z)-[1-{4-[(4-(2-hydroxy-ethyl)-piperazin-1-yl)-carbonyl]-phenylamino}1-phenyl-methylidene]-2-indolinone-6-carboxylate [(i)]”, the IC50 was found to be 20 nM.
The same measure for `COC(=O)c1ccc2c(c1)NC(=O)/C2=C(\Nc1ccc(C(=O)N(C)CCN(C)C)cc1)c1ccccc1` [(a), methyl 3-(Z)-[1-{4-[N-(2-dimethylamino-ethyl)-N-methyl-carbamoyl]-phenylamino}-1-phenyl-methylidene]-2-indolinone-6-carboxylate]: 40 nM; for `COC(=O)c1ccc2c(c1)NC(=O)/C2=C(\Nc1ccc(C(=O)N(C)CCCN(C)C)cc1)c1ccccc1` [(b), methyl 3-(Z)-[1-{4-[N-(3-dimethylamino-propyl)-N-methyl-carbamoyl]-phenylamino}-1-phenyl-methylidene]-2-indolinone-6-carboxylate]: 20 nM.

The values are drawn from US6858641B2, “Substituted indolinones” (Boehringer Ingelheim Pharma KG, priority 2001, dated 2005).
